From patent US12384813B2, “Polymer linked multimers of guanosine-3′, 5′-cyclic monophosphates” (MIRECA MEDICINES GMBH, priority 2016, dated 2025)
Each block holds one compound with its values, some of them ahead of it.

Legend:
PKG Iα = molecular target: T1, PKG Iα (Homo sapiens, UniProt Q13976); conditions: cited from earlier work
T1 sequence (Q13976 1-671): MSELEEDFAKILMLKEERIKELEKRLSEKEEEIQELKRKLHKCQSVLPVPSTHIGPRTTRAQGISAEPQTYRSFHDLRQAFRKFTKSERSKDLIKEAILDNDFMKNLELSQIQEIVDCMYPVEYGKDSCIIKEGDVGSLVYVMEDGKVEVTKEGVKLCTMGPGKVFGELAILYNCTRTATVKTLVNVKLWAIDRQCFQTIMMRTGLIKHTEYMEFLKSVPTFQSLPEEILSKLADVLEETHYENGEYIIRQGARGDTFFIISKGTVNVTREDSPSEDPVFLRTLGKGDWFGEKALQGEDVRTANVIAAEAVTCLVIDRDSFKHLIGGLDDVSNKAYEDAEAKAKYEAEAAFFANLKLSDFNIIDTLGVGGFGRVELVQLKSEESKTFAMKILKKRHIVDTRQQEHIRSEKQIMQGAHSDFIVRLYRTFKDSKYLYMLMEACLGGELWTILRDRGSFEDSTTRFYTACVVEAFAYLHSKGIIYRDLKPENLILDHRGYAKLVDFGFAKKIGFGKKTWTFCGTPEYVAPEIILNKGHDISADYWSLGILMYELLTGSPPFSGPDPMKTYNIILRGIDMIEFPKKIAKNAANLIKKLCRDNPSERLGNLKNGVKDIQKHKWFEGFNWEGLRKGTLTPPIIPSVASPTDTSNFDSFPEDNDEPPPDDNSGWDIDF

[1] = Water solubility of alkyl spacer PLDs; assay type: physicochemical; conditions: alkyl spacers with moderate size
PKG II = molecular target: T2, PKG II (Homo sapiens, UniProt Q13237); assay: In vitro activation of PKG II, ADP-Glo Kinase Assay (luminescence), VASPtide substrate; conditions: compound lacking PET moiety vs compound 5
T2 sequence (Q13237 1-762): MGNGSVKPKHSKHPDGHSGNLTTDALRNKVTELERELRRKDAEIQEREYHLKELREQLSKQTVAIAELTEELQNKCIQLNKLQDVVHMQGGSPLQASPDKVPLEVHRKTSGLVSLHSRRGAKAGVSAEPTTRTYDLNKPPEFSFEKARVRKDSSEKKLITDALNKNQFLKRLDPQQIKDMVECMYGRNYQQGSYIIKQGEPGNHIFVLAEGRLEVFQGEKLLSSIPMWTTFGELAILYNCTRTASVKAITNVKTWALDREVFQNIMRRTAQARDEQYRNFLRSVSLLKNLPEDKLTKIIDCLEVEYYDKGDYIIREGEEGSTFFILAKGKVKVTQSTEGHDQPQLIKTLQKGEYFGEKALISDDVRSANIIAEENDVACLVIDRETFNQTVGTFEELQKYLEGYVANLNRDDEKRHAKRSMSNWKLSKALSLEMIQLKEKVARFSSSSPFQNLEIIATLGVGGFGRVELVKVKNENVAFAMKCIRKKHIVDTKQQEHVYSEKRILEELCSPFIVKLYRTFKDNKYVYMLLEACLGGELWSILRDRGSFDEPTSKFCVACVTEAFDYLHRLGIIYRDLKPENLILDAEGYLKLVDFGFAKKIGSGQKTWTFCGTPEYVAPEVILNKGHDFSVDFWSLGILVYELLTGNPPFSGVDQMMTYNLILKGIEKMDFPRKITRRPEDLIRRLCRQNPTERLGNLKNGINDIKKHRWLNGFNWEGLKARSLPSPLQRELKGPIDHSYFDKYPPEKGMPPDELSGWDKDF

PKG Iβ = molecular target: T3, PKG Iβ (Homo sapiens, UniProt Q13976); assay: In vitro activation of PKG Iβ, ADP-Glo Kinase Assay (luminescence), VASPtide substrate; assay type: biochemical; conditions: compound lacking PET moiety vs compound 5
T3 construct: made in house; host or cells: Sf9 cells
T3 sequence (Q13976 1-686 isoform Q13976-2): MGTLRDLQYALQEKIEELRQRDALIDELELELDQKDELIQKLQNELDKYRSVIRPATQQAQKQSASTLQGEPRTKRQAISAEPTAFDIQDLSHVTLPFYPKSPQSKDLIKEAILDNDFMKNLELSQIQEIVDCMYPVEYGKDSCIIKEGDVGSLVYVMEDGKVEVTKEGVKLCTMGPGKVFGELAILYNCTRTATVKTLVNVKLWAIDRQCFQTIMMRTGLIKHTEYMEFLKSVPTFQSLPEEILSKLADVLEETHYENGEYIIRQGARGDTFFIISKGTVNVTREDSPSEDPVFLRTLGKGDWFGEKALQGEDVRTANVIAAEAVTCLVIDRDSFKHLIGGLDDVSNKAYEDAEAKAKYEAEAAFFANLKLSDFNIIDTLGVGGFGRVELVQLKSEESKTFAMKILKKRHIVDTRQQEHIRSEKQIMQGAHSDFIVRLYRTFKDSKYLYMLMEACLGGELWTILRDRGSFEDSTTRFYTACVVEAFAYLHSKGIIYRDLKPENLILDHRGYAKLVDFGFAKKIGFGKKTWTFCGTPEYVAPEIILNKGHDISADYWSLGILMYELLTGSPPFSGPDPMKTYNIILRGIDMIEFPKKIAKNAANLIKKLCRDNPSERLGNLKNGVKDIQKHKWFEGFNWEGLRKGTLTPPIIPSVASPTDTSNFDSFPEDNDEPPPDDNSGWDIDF

SMILES: Nc1nc2c(nc(Sc3ccccc3N)n2[C@@H]2O[C@@H]3COP(=O)(O)O[C@H]3[C@H]2O)c(=O)[nH]1 [8-APT-cGMP, 8-(2-NH2-Ph-S)-cGMP]
PKG Iα activation potential compared to cGMP (literature) (PKG Iα): about 15 fold

water solubility [1]: sufficient water solubility
SMILES: Nc1nc2c(nc(SCCCCCCCCCCCCSc3nc4c(=O)[nH]c(N)nc4n3[C@@H]3OC4COP(=O)(O)O[C@H]4C3O)n2[C@@H]2OC3COP(=O)(O)O[C@H]3C2O)c(=O)[nH]1 (stereo partly shown) [compound 16, Guanosine-3′,5′-cyclic monophosphate-[8-thio(dodecanyl)-thio-8]-guanosine-3′,5′-cyclic monophosphate]

SMILES: Nc1nc2c(nc(SCC(=O)NCCOCCOCCOCCOCCOCCOCCOCCOCCNC(=O)CSc3nc4c(=O)[nH]c(N)nc4n3C3OC4COP(=O)(O)OC4C3O)n2C2OC3COP(=O)(O)OC3C2O)c(=O)[nH]1 (stereo not shown) [compound 3, Guanosine-3′,5′-cyclic monophosphate-[8-thiomethylamido-(octaethoxy)-ethylamidomethylthio-8]-guanosine-3′,5′-cyclic monophosphate]
increase of relative PKG II activation compared to compound 5 (PKG II): 30 fold | decrease of relative PKG Iβ activation compared to compound 5 (PKG Iβ): more than 51 fold
